# Read-outs that look alike come from different tables or passages of the source.
# Experiments:
# [1] = tested on: HIV replication in monocytes (chronic HIV-1 infected promonocytic cells U1); test: HIV chronic study, chronically HIV-1 infected promonocytic U1 cells; assay type: cell-based
# Protocol: (§1) Chronic HIV-1 infected promonocytic cells U1 were derived from an acute HIV-1 infection of the promonocytic cell line, U937. The chronic HIV-1 infected T-cells, ACH-2, were derived from an acute HIV-1 infection of the T cell line, A3.01.
# (§2) These cells were cultured in medium and the phorbol ester, PMA. PMA causes the cells (both U1 and ACH-2) to be activated and not divide but it also causes the U-1 cells to differentiate. […] Cell viability was measured when these cell lines were treated with the test compounds.
# (§3) Both cell lines constituitively produce a small amount of HIV-1. ACH-2 cell lines tend to produce more HIV-1 than U1 cells as shown by p-24 ELISA. When either cell line is cultured in the presence of PMA there is an increase in the quantity of HIV-1 produced as measured by the p-24 antigen ELISA.
# (§4) In addition, the number of […] positive HIV mRNA expressing cells per microscopic field is measured. Comparisons can be made from these numbers since the same number of cells were adhered to the glass slides for each drug concentration (10×10^6 cells/ml).
# [2] = tested on: HIV; test: Acute HIV study, in vitro acute model; assay type: cell-based; details: in vitro acute model for HIV
# Protocol: In an in vitro acute model for HIV chloropropham inhibited viral replication by 47% at 10 μg/ml and AZT inhibited viral replication by 98% at 1 μg/ml. The therapeutic index for chloropropham is 2.5 compared to 12,500 for AZT. The therapeutic index is ratio of toxic dose of the drug to the efficacious dose of the drug.
# [3] = tested on: breast cells (MX1); test: MTT cell viability test, breast cells; assay type: cell-based; details: Homo sapiens, 120 h
# Protocol: (§5) The following cell culture tests were performed to test the toxicity of N-chlorophenylcarbamates and N-chlorophenylthiocarbamates compounds on colon, breast and lung human tumor cells. The viability of the cells were tested by looking at MTT (3-[4,5-dimethylthiazol-2-yl]-2,5-diphenyltetrazolium bromide) reduction. MTT assay is a well known measure of cell viability.
# (§6) The colon tumor cells (HT29 from American Type Culture Collection (ATCC)) and the breast cells (MX1 from cell lines from ATCC) were cultured in Eagle's Minimal Essential Medium with 10% fetal bovine serum. The lung tumor cells (A549 from ATCC cell lines) were cultured in Ham's F12 medium with 10% fetal bovine serum.
# (§7) The tumor cells were passaged and seeded into culture flasks at the desired cell densities. The culture medium was decanted and the cell sheets were washed twice with phosphate buffered saline (PBS). The cells were trypsinized and triturated prior to seeding the flasks. Unless otherwise indicated the cultures were incubated at 37±1° C. in a humidified atmosphere of 5±1% carbon dioxide in air. The cultures were incubated until they were 50-80% confluent.
# (§8) The cells were subcultured when the flasks were subconfluent. The medium was aspired from the flasks and the cell sheets rinsed twice with PBS. Next, the Trypsin Solution was added to each flask to cover the cell sheet. The Trypsin Solution was removed after 30-60 seconds and the flasks were incubated at room temperature for two to six minutes. When 90% of the cells became dislodged, growth medium was added. The cells were removed by trituration and transferred to a sterile centrifuge tube. The concentration of cells in the suspension was determined, and an appropriate dilution was made to obtain a density of 5000 cells/ml. The cells were subcultured into the designated wells of the 96-well bioassay plates (200 microliter cell suspension per well). PBS was added to all the remaining wells to maintain humidity. The plates were then incubated overnight before test article treatment.
# (§9) Each dose of test article was tested by treating quadruplicate wells of cultures with 100 microliter of each dilution. Those wells designated as solvent controls received an additional 100 microliters of methanol control; negative controls wells received an additional 100 microliters of treatment medium. PBS was added to the remaining wells not treated with test article or medium. The plates were then incubated for approximately 5 days. […]
# (§10) The absorbance at 550 nm (OD550) of each well was measured with a Molecular Devices (Menlo Park, Calif.) VMax plate reader.
# (§11) The mean OD550 of the solvent control wells and that of each test article dilution, and that of each of the blank wells and the positive control were calculated. […]
# [4] = tested on: Broncheal Cells; test: EC-50 in normal healthy cells, bronchial cells; assay type: cell-based
# [5] = tested on: lung tumor cells (A549); test: MTT cell viability test, lung tumor cells; assay type: cell-based; details: Homo sapiens, A549, 120 h
# Protocol: as §5, §6, §7, §8, §9, §10, §11
# [6] = tested on: Fibroblasts; test: EC-50 in normal healthy cells, fibroblasts; assay type: cell-based; details: Fibroblast
# [7] = tested on: colon tumor cells (HT29); test: MTT cell viability test, colon tumor cells; assay type: cell-based; details: Homo sapiens, HT-29, 120 h
# Protocol: as §5, §6, §7, §8, §9, §10, §11
# [8] = tested on: Kerotinoyle Cells; test: EC-50 in normal healthy cells, keratinocytes; assay type: cell-based; details: Keratinocyte
# [9] = tested on: Rhinovirus; test: In vivo Rhinovirus screening test
# [10] = tested on: leukemia (P388); test: In vivo mouse model for leukemia
# [11] = tested on: murine melanoma (B16); test: In vivo mouse model for murine melanoma
# [12] = tested on: breast, colon, non-small cell lung and ovarian tumors; test: In vitro human tumor colony forming units test, continuous exposure; assay type: cell-based
# Protocol: Solid tumors removed from patients are minced into 2 to 5 mm fragments and immediately placed in McCoy's Medium 5A plus 10% heat inactivated newborn calf serum plus 1% penicillin/streptomycin. Within 4 hours, these solids tumors are mechanically disassociated with scissors, forced through No. 100 stainless steel mesh, through 25 gauge needles, and then washed with McCoy's medium as described above. Ascitic, pleural, pericardial fluids and bone marrow are obtained by standard techniques. The fluid or marrow is placed in sterile containers containing 10 units of preservative free heparin per ml. of malignant fluid or marrow. After centrifugation at 150×g for 10 minutes, the cells are harvested and washed with McCoy's medium plus 10% heat inactivated calf serum. The viability of cell suspensions is determined on a hemocytometer with trypan blue.
# Cells to be cloned are suspended in 0.3% agar in enriched CMRL1066 supplemented with 15% heat inactivated horse serum, penicillin (100 units/ml), streptomycin (2 mg/ml), glutamine (2 mM), insulin (3 units/ml), asparagine (0.6 mg/ml), and HEPES buffer (2 mM). For the continuous exposure test each compound is added to the above mixture. […] If there is <30% colonies in the positive control when compared to the untreated control, the test is evaluated.
# [13] = tested on: herpes; test: In vitro herpes screening model; assay type: cell-based
# [14] = doses from 50-400 mg/kg; 1958, 1959, 1972; cited from earlier work
# [15] = tested on: HIV replication in T-cells (chronic HIV-1 infected T-cells, ACH-2); test: HIV chronic study, chronically HIV-1 infected ACH-2 T-cells; assay type: cell-based; details: chronic HIV model, ACH-2 cells
# Protocol: as §1, §2, §3, §4
# [16] = tested on: herpes; test: In vivo herpes screening test; set-up: species or system mice
# Protocol: In an in vivo herpes screening test, at a dose of 150 mg/kg dose, 60% of the mice survived with a 10.2 mean death date. The positive control was acyclovir at 75 mg/kg dose; 60% of the mice survived with a mean death date of 17.2 days.
# [17] = tested on: influenza; test: In vitro model for influenza; assay type: cell-based
# [18] = tested on: breast cancer (MXI); test: In vivo mouse model for breast cancer
# [19] = tested on: influenza; test: In vivo model for influenza
# [20] = 75 mg/kg dose, positive control
structure (smiles),measurement,setting,value
"Cc1cn([C@H]2C[C@H](N=[N+]=[N-])[C@@H](CO)O2)c(=O)[nH]c1=O [AZT, reference compound]",action in the HIV chronic model,[1],no action
same,inhibition of viral replication,[2]; 1 μg/ml,98%
"COc1cccc2c1C(=O)c1c(O)c3c(c(O)c1C2=O)C[C@@](O)(C(=O)CO)C[C@@H]3O[C@H]1C[C@H](N)[C@H](O)[C@H](C)O1 [Adriamycin, doxorubicin (adriamycin), reference compound]",EC50,"[3]; MTT, 5 day incubation, first MX1 column, read-out: EC-50 Result MX1",0.02 µg/mL
same,EC50,"[3]; MTT, 5 day incubation, second MX1 column, read-out: EC-50 Result MX1",0.001 µg/mL
same,EC50,"[4]; normal healthy cells, first value, read-out: EC-50 Broncheal Cells",0.015 µg/mL
same,EC50,"[4]; normal healthy cells, second value, read-out: EC-50 Broncheal Cells",0.002 µg/mL
same,EC50,"[5]; MTT, 5 day incubation, first A549 column, read-out: EC-50 Result A549",0.03 µg/mL
same,EC50,"[5]; MTT, 5 day incubation, second A549 column, read-out: EC-50 Result A549",0.009 µg/mL
same,EC50,"[6]; normal healthy cells, first value, read-out: EC-50 Fibroblasts",0.065 µg/mL
same,EC50,"[6]; normal healthy cells, second value, read-out: EC-50 Fibroblasts",0.1 µg/mL
same,EC50,"[7]; MTT, 5 day incubation, first HT29 column, read-out: EC-50 Result HT29",0.003 µg/mL
same,EC50,"[7]; MTT, 5 day incubation, second HT29 column, read-out: EC-50 Result HT29",0.006 µg/mL
same,EC50,"[8]; normal healthy cells, first value, read-out: EC-50 Kerotinoyle Cells",0.0035 µg/mL
same,EC50,"[8]; normal healthy cells, second value, read-out: EC-50 Kerotinoyle Cells",0.0093 µg/mL
"CC(C)OC(=O)Nc1cccc(Cl)c1 [Chloropropham, (3-chlorophenyl)carbamic acid 1-methylethyl ester]",activity in in vivo Rhinovirus screening test,[9],Nor was it active
same,activity in in vivo mouse model for leukemia (P388),[10],no activity
same,suppression of HIV replication in monocytes,"[1]; chronic HIV model, U1 cells",79%
same,EC50,"[3]; read-out: EC-50 Result MX1, MTT, 5 day incubation, first MX1 column",91.8 µg/mL
same,EC50,"[3]; read-out: EC-50 Result MX1, MTT, 5 day incubation, second MX1 column",108 µg/mL
same,activity in in vivo mouse model for murine melanoma (B16),[11],no activity
same,inhibition at 10 µg/mL,"[2]; Human immunodeficiency virus 1, 10 μg/ml, read-out: inhibition of viral replication",47%
same,effective against tumors (fraction),"[12]; 100 μg/ml, continuous exposure, breast, colon, non-small cell lung and ovarian tumors",6/7
same,effectiveness against tumors,[12]; 1 and 10.0 μg/ml,not effective
same,activity in in vitro herpes screening model,[13],Nor was it active
same,activity in National Cancer Institute tests,[14],no activity
same,increase in HIV replication in T-cells,[15],101%
same,mean death date,[16]; 150 mg/kg dose,10.2
same,mice survived,[16]; 150 mg/kg dose,60%
same,EC50,"[4]; read-out: EC-50 Broncheal Cells, normal healthy cells, second value",> 15.2 µg/mL
same,EC50,"[5]; read-out: EC-50 Result A549, MTT, 5 day incubation, first A549 column",12.6 µg/mL
same,EC50,"[5]; read-out: EC-50 Result A549, MTT, 5 day incubation, second A549 column",92.5 µg/mL
same,EC50,"[6]; read-out: EC-50 Fibroblasts, normal healthy cells, first value",> 152 µg/mL
same,EC50,"[6]; read-out: EC-50 Fibroblasts, normal healthy cells, second value",64.2 µg/mL
same,activity in in vitro model for influenza,[17],did not show activity
same,activity in in vivo mouse model for breast cancer (MXI),[18],no activity
same,EC50,"[7]; read-out: EC-50 Result HT29, MTT, 5 day incubation, first HT29 column",13.3 µg/mL
same,EC50,"[7]; read-out: EC-50 Result HT29, MTT, 5 day incubation, second HT29 column",11.4 µg/mL
same,EC50,"[8]; read-out: EC-50 Kerotinoyle Cells, normal healthy cells, first value",3.9 µg/mL
same,EC50,"[8]; read-out: EC-50 Kerotinoyle Cells, normal healthy cells, second value",13 µg/mL
same,activity in in vivo model for influenza,[19],did not show activity
"Nc1nc2c(ncn2COCCO)c(=O)[nH]1 [acyclovir, reference compound]",mean death date,[16]; [20],17.2 days
same,mice survived,[16]; [20],60%

# Reference: patent US6686391B2, “N-chlorophenylcarbamate and N-chlorophenylthiocarbamate compositions” (University of Arizona Foundation, priority 1995, dated 2004)
